# According to patent US6787670B1, “Glyoxyl acid amides, method for producing them and their use for controlling harmful organisms” (priority 1999, dated 2004):
# Read-outs that look alike come from different tables or passages of the source.
# How the values were obtained:
# Type in all cases: in vivo
# [1] = tested on: Phytophthora infestans; assay: whole plant or invertebrate; settings: 100% = no infection; for efficacy in %: tomato plants, protective spray, application rate 50 g/ha, evaluation 3 days after inoculation; for pest or weed control at 50 g/ha: Phytophthora infestans, in Solanum lycopersicum, 72 h, read-out: efficacy in %, tomato plants, protective spray, application rate 50 g/ha, evaluation 3 days after inoculation
# [2] = tested on: Alternaria solani; assay: Alternaria test (tomato)/protective; settings: tomato plants, protective spray, application rate 750 g/ha, evaluation 3 days after inoculation; 100% = no infection
# Procedure: Alternaria Test (Tomato)/Protective
# Solvent: 50 parts by weight of N,N-dimethylformamide
# Emulsifier: 1.2 parts by weight of alkylaryl polyglycol ether
# One day after the treatment, the plants are inoculated with a spore suspension of Alternaria solani. The plants then stand at 100% rel. atmospheric humidity and a temperature of 20° C.
# Evaluation is carried out 3 days after the inoculation.
# [3] = tested on: Plasmopara viticola; assay: Plasmopara test (grapevine)/protective; settings: 144 h
# [4] = read-out: efficacy in %, grapevine plants, protective spray, application rate 50 g/ha, evaluation 6 days after inoculation, 100% = no infection
# [5] = grapevine plants, protective spray, application rate 50 g/ha, evaluation 6 days after inoculation, 100% = no infection, read-out: efficacy in %
compound,measurement,setting,value
COCCOc1ccc(CCNC(=O)/C(=N/OC)c2ccc3c(c2)CCCC3)cc1OC [Example 3],efficacy in %,[1],92%
CO/N=C(\C(=O)NCCc1ccc(OCC(C)C)c(OC)c1)c1ccc2c(c1)CCCC2 [Example 45],efficacy in %,[2],95%
CCCCOc1ccc(CCNC(=O)/C(=N\OC)c2ccc3c(c2)CCCC3)cc1OC [Example 48],efficacy in %,[2],95%
CO/N=C(\C(=O)NCCc1ccc(OCC(C)C)c(OC)c1)c1ccc2c(c1)CCCC2 [Example 49],efficacy in %,[2],90%
C=CCOc1ccc(CCNC(=O)/C(=N\OC)c2ccc(Br)cc2)cc1OC [Example 52],efficacy in %,[1],100%
CCOc1cc(CCNC(=O)/C(=N\OC)c2ccc3c(c2)CCCC3)ccc1OC [Example 52],pest or weed control at 50 g/ha,[3]; read-out: efficacy in %,93%
C=CCOc1ccc(CCNC(=O)/C(=N\OC)c2ccc3c(c2)CCCC3)cc1OC [Example 57],pest or weed control at 50 g/ha,[1],99%
CCC(=O)COc1ccc(CCNC(=O)/C(=N\OC)c2ccc3c(c2)CCCC3)cc1OC [Example 60],pest or weed control at 50 g/ha,[1],89%
CCc1ccc(/C(=N/OC)C(=O)NCCc2ccc(OC(C)C)c(OC)c2)cc1 [Example 60],pest or weed control at 50 g/ha,[1],≥ 89%
same,pest or weed control at 50 g/ha,[3]; [4],≥ 83%
COCCOc1ccc(CCNC(=O)/C(=N\OC)c2ccc(Cl)cc2)cc1OC [Example 60],pest or weed control at 50 g/ha,[3]; [5],96%
CCCOc1ccc(CCNC(=O)/C(=N\OC)c2ccc(Br)cc2)cc1OC [Example 61],pest or weed control at 50 g/ha,[1],94%
CO/N=C(\C(=O)NCCc1ccc(OC(C)C)c(OC)c1)c1ccc2c(c1)CCCC2 [Example 61],pest or weed control at 50 g/ha,[1],≥ 89%
CCC(C)Oc1ccc(CCNC(=O)/C(=N\OC)c2ccc(Cl)cc2)cc1OC (stereo not shown) [Example 62],pest or weed control at 50 g/ha,[1],89%
C=CCOc1ccc(CCNC(=O)/C(=N\OC)c2ccc(Br)cc2)cc1OC [Example 63],pest or weed control at 50 g/ha,[3]; read-out: efficacy in %,99%
CO/N=C(\C(=O)NCCc1ccc(OC(C)C)c(OC)c1)c1ccc2c(c1)CCCC2 [Example 63],efficacy in %,[1]; listed as drawing 53,94%
CCC(C)Oc1ccc(CCNC(=O)/C(=N\OC)c2ccc3c(c2)CCC3)cc1OC (stereo not shown) [Example 65],pest or weed control at 50 g/ha,[1],94%
COCCOc1ccc(CCNC(=O)/C(=N\OC)c2ccc3c(c2)CCCC3)cc1OC [Example 65],pest or weed control at 50 g/ha,[3]; read-out: efficacy in %,93%
CCC(=O)COc1ccc(CCNC(=O)/C(=N\OC)c2ccc3c(c2)CCCC3)cc1OC [Example 100],pest or weed control at 50 g/ha,[3]; [5],94%
CCOc1cc(CCNC(=O)/C(=N\OC)c2ccc3c(c2)CCCC3)ccc1OC [Example 100],pest or weed control at 50 g/ha,[3]; [4],≥ 83%
CO/N=C(\C(=O)NCCc1ccc(OC(C)C)c(OC)c1)c1ccc(C)cc1 [Example 107],pest or weed control at 50 g/ha,[1],95%
COCCOc1ccc(CCNC(=O)/C(=N/OC)c2ccc3c(c2)CCCC3)cc1OC [Example 107],pest or weed control at 50 g/ha,[1],≥ 89%
CCC(C)Oc1ccc(CCNC(=O)/C(=N\OC)c2ccc(Cl)cc2)cc1OC (stereo not shown) [Example 111],pest or weed control at 50 g/ha,[3]; [5],83%
CCC(C)Oc1ccc(CCNC(=O)/C(=N\OC)c2ccc3c(c2)CCC3)cc1OC (stereo not shown) [Example 113],pest or weed control at 50 g/ha,[3]; [5],94%
CCc1ccc(/C(=N/OC)C(=O)NCCc2ccc(OC(C)C)c(OC)c2)cc1 [Example 113],efficacy in %,[1],94%
C=CCOc1ccc(CCNC(=O)/C(=N\OC)c2ccc(Br)cc2)cc1OC [Example 115],pest or weed control at 50 g/ha,[1],≥ 89%
same,pest or weed control at 50 g/ha,[3]; [4],≥ 83%
CCc1ccc(/C(=N/OC)C(=O)NCCc2ccc(OC(C)C)c(OC)c2)cc1 [Example 115],pest or weed control at 50 g/ha,[3]; read-out: efficacy in %,87%
CO/N=C(\C(=O)NCCc1ccc(OC(C)C)c(OC)c1)c1ccc2c(c1)CCC2 [Example 115],pest or weed control at 50 g/ha,[1],94%
CO/N=C(\C(=O)NCCc1ccc(OC(C)C)c(OC)c1)c1ccc2c(c1)CCC2 [Example 116],pest or weed control at 50 g/ha,[3]; [5],100%
CO/N=C(\C(=O)NCCc1ccc(OC(C)C)c(OC)c1)c1ccc2c(c1)CCCC2 [Example 116],efficacy in %,[1]; listed as drawing 58,94%
